Laboratory results published in patent publication US12485134B2, “Use of nicotinamide riboside, nicotinic acid riboside, reduced nicotinyl riboside compounds, and nicotinyl riboside compound derivatives in formulations” (ChromaDex Inc., priority 2019, dated 2025).
One block for each compound: values may come before it.

Key:
[1] = Recovery of NR added to store bought (cow) milk, HILIC/HPLC/UV; assay type: physicochemical; conditions: cow's milk and human breast milk
Experimental: Nicotinamide riboside (NR, I) is also naturally found in milk. […] FIGS. 2B and 2C are control chromatograms showing detection of nicotinamide riboside (NR, I) after adding nicotinamide riboside (NR, I) to the milk sample at a known amount. […] The calculated recovery of the 1% nicotinamide riboside (NR, I) was close to 100%. […] Centrifugation was then performed to remove any precipitate, and the supernatant was analyzed using an HILIC/HPLC/UV using standard methods.

[2] = test system: milk concentrate proteins; experiment: WaterLOGSY NMR binding of NR-Cl; conditions: milk concentrate, pH 7.0
Experimental: (§1) WaterLOGSY is a sensitive ligand-observed NMR experiment designed for the screening of protein ligands from a mixture of potential binders. […] The experiment relies on fast dissociation of bound ligands to carry into the free state magnetisation originating from irradiated water that has been transmitted via the protein complex.
(§2) NMR samples for WaterLOGSY were prepared as follows. Ligand-detect WaterLOGSY experiments were carried at 600 MHz with 5-mm cryoprobe and using 5-mm NMR tubes. Each NMR sample for WaterLOGSY contained ˜0.05 mg (˜0.35 mM), using unlabeled ligand NR-Cl (“NR”), in a NMR buffer containing ˜0.5 mL 90% H2O/10% ^2H2O at pH 7.0 with or without the milk and soy protein mix (compared to the WaterLOGSY of NR as a negative control). Protein was added as a powder with a minimal 15 to 50 μM concentration. Typically, the final NMR sample of protein-compound mixtures had >20-fold higher compound concentration of ligand compared to that of the protein. Denatured samples were prepared by simply heating (80° C. for 15-20 mins) the aqueous (5-10% ^2H2O) protein mixture (in absence of NR).
The NR only WaterLOGSY spectrum (FIG. 23) was the negative control to screen for any potential binding of NR-Cl to milk concentrate and soy isolate proteins as shown herein and discussed below.

[3] = test system: protein components of a meal replacement beverage; experiment: WaterLOGSY NMR binding of NR-Cl; conditions: meal replacement beverage containing soy protein isolate and milk protein concentrate
Experimental: as §1, §2
The beverage that was tested contained soy protein isolate and milk protein concentrate and it could only be either of these ingredients that could contribute to the positive result that was observed. […]

milk proteins = experiment: WaterLOGSY NMR, direct binding of 15N-labeled NR to milk proteins; conditions: no milk, 150 μL and 300 μL of milk
Text: Whey protein fraction and casein protein have been identified as leading candidates to bind directly to and stabilize nicotinamide riboside (NR, I) in milk. The addition of these proteins in particular (either alone or in combination with other proteins and/or vitamins) in order to stabilize nicotinamide riboside (NR, I) in liquid constitutes another embodiment of a method of delivery of the present invention. […] In this experiment, Water-Ligand Observed via Gradient Spectroscopy (WaterLOGSY NMR) was used to detect direct binding of stable, isotope-labeled (^15N) nicotinamide riboside (NR, I) to milk proteins. This is visualized as a concentration-dependent shift in the nicotinamide riboside (NR, I) spectra with increasing additions of milk. The concentric shapes shifts from left to right are the results of addition of no milk, 150 μL of milk, and 300 μL of milk, respectively.

[4] = mice on a high-fat diet supplemented with NR; cited from earlier work
[5] = Degradation tracking of 15N NR-Cl to 15N nicotinamide by 15N-1H HMBC and 1H NMR, with or without whey protein; assay type: physicochemical
Experimental: A series of 1D ^1H and 1D ^15N-^1H HMBC experiments were collected on a 600 MHz Bruker instrument with 5-mm cryoprobe and using 5-mm NMR tubes. Each sample contains ˜10 mM ^15N isotope labeled NR-Cl (or non-isotope), in a solution containing ˜0.5 mL 90% H2O/10% ^2H2O buffered at pH values of 7.0 (5 mM PBS) and 9.0 (50 mM Glycine/Sodium hydroxide), with or without whey protein. The NMR tube was incubated at 25° C. and data collected at 1, 3 and 7 days. The NMR results provided evidence of binding to milk and soy protein and provided evidence of increased stability in combination with Whey protein at different pH over a 7 day time-course.
FIG. 22 highlights the corresponding ^1H-NMR data for the increased stability of the NR-Cl at day 7 under pH 7 and 9 buffered conditions, compared to control.
The integrations for the peaks corresponding to ^15N NR-Cl and ^15N nicotinamide were measured for the degradation that had occurred to ^15N—NR-Cl from Day 1 to Day 7. […] The half-life for ^15N NR-Cl in buffered pH 9 conditions- improved from 2.7 days (control) to 10 days in the presence of Whey protein.

[6] = test system: hydrolyzed whey protein isolate; experiment: NR-Cl binding to hydrolyzed whey protein isolate (10 kDa cutoff filtration, unbound NR-Cl in filtrate by HPLC); conditions: hydrolyzed whey protein isolate solutions, ambient and refrigerated
Experimental: A. Solutions of hydrolyzed whey protein isolate (>90% protein, 2-7% degree of hydrolysis) were prepared at varying concentrations and filtered through 0.2 μm sterile filters. An aliquot of sterile nicotinamide riboside chloride (“NR-Cl,” a salt of NR, I) in water solution was spiked into the sterile whey solutions, targeting a final NR-Cl concentration of 1 mmol per liter (0.3 mg/mL). The solutions containing the mixture of hydrolyzed whey and NR-Cl were filtered through 10 kDa molecular weight cutoff centrifuge filters to remove the whey proteins (14-80 kDa) and any NR-Cl that was bound to the proteins. Any NR-Cl that was not bound to the whey proteins was recovered in the filtrate and quantitated by HPLC.
The solutions of hydrolyzed whey protein isolate and NR-Cl were stored at ambient and refrigerated conditions and analyzed at various timepoints for NR-Cl protein binding and stability.
A study measuring the stability of NR-Cl in hydrolyzed and non-hydrolyzed whey protein was conducted with 2 mmol/L NR-Cl (0.6 mg/mL) and 20 mg/mL protein (33.3:1 wt:wt protein:NR-Cl). […] (See Table 5).

Compound: NC(=O)c1ccc[n+]([C@@H]2O[C@H](CO)[C@@H](O)[C@H]2O)c1 [NR, Nicotinamide riboside]
- stability in milk [1]: stable in milk
- WaterLOGSY binding [2]: comparatively weaker binding
- WaterLOGSY binding [3]: strongest evidence of NR binding
- direct binding to milk proteins (WaterLOGSY, concentration-dependent shift) (milk proteins): binds to proteins in milk
- less weight gained [4]: 40%

- half-life ([5]; PBS buffer with whey protein, buffered pH 7, 25° C., in the presence of Whey protein): 672 h
- half-life ([5]; PBS buffer without whey protein (control), buffered pH 7, 25° C., control (without Whey protein)): 81.6 h
- half-life ([5]; buffered pH 9, 25° C., control (without Whey protein)): 64.8 h
- half-life ([5]; glycine/sodium hydroxide buffer with whey protein, buffered pH 9, 25° C., in the presence of Whey protein): 240 h
- rate of degradation in the presence of Whey protein ([5]; pH 7.0 and 9.0, days 1, 3 and 7): slower than the control
Compound: NC(=O)c1ccc[15n+]([C@@H]2O[C@H](CO)[C@@H](O)[C@H]2O)c1 [^15N NR-Cl, ^15N-labeled nicotinamide riboside chloride]

- binding to whey [6]: not observed to bind
Compound: NC(=O)c1cccnc1 [nicotinamide]
